Results taken from US12370143B2, “Compound or salt thereof and lipid particles” (FUJIFILM Corporation, priority 2018, dated 2025).
Read-outs that look alike come from different tables or passages of the source.

Assays:
[1] = Particle size of nucleic acid lipid particles (Luc2-siRNA); format: physicochemical; conditions: compound/DSPC/cholesterol/DMG-PEG2000 50/10/38.5/1.5
Summary of the method: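 Particle size was read by ELS-Z2 light scattering on nucleic acid lipid particles after dialysis against PBS. These were made by micromixing Luc2-siRNA (19.7 μmol/L, pH 4 acetate) with ethanolic lipids (test lipid/DSPC/cholesterol/DMG-PEG2000 50/10/38.5/1.5, 20 mmol/L) at 3:1 water:oil, siRNA/lipid 339 mol/mol.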

[2] = Encapsulation rate of siRNA in nucleic acid lipid particles (Luc2-siRNA); format: physicochemical; conditions: compound/DSPC/cholesterol/DMG-PEG2000 50/10/38.5/1.5
Summary of the method: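 Encapsulation rate was calculated as (total − outer-phase siRNA)/total ×100. Total siRNA was quantified spectrophotometrically after lipid-dissolving ethanol precipitation, and unencapsulated siRNA by RiboGreen in TE (ex 485/em 535 nm). The particles were test lipid/DSPC/cholesterol/DMG-PEG2000 at 50/10/38.5/1.5, formed by microfluidic mixing with Luc2-siRNA at pH 4 and dialyzed against PBS.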

[3] = test system: DMS273 cells constantly expressing Luc; test: Target reporter protein (Luc) knockdown in cell, reporter protein assay; format: cell-based; conditions: Homo sapiens, DMS-273
Summary of the method: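 Nucleic acid lipid particles added at final 0.1 to 100 nmol/L to DMS273 human SCLC cells stably expressing Luc2, 24 hr exposure then 24 hr further culture after medium change. Luc quantified by Steady Glo luminescence after viable cell count; knockdown efficiency calculated and IC50 taken as concentration giving 50% Luc reduction.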

[4] = test system: Factor VII (FVII) protein; test: Measurement of Factor VII (FVII) protein in mouse plasma after FVII-siRNA lipid particles; format: in vivo, C57BL6/J mice; conditions: 0.1 mg/kg caudal vein, plasma 24 hours after administration, PBS group = 100%
Summary of the method: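 C57BL6/J mice (n=3) received FVII-siRNA nucleic acid lipid particles at 0.1 mg/kg into the tail vein; controls got PBS. Each value is the percentage of the PBS-group FVII level.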

[5] = Particle size of nucleic acid lipid particles (FVII-siRNA); format: physicochemical
Summary of the method: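 Lipid particles formed by micromixing ethanolic ionizable lipid/DSPC/cholesterol/DMG-PEG2000 (50/10/38.5/1.5 mol) with siRNA in pH 4 acetate buffer (3:1 water:oil), diluted with PBS and dialysed against PBS.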

[6] = Nucleic acid encapsulation rate of nucleic acid lipid particles (FVII-siRNA); format: physicochemical
Summary of the method: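 Total nucleic acid was measured by adding 30 μL of 3 mol/L sodium acetate and 9 μL of glycogen to 60 μL of FVII-siRNA lipid particles, then precipitating with 1.5 mL ethanol, centrifuging, air-drying, redissolving in water, and reading on a Nanodrop. Outer-phase nucleic acid came from a RiboGreen assay (ex 485 nm, em 535 nm) on samples diluted 10,000× in 1×TE. Encapsulation (%) = (total − outer)/total × 100.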

[7] = Luc2-siRNA lipid particles using the compound, siRNA 0.1 to 100 nmol/L, concentration at which Luc expression is knocked down to 50%, read-out: IC50

| Structure (SMILES) | Particle size (nm) [1] [nm] | Nucleic acid encapsulation rate [2] [%] | IC50 [3, 7] [nM] | Relative amount of FVII protein (%) [4] [%] | Particle size (nm) [5] [nm] | Nucleic acid encapsulation rate [6] [%] | IC50 [3] [nM] |
| --- | --- | --- | --- | --- | --- | --- | --- |
| CCCC/C=C\CCCCCCCC(=O)OCCCCCCC(CCCCCCOC(=O)CCCCCCC/C=C\CCCC)OC(=O)OCCN(CC)CCN(CC)CC [Example 47, 7-(((2-((2-(Diethylamino)ethyl)(ethyl)amino)ethoxy)carbonyl)oxy)tridecane-1,13-diyl(9Z,9′Z)-bis(tetradec-9-enoate)] | 72.3 | 74 | 19 | 11 | 79.4 | 82 |  |
| CCCCCCCCCCCCC(CCCCCCCCC(=O)OCC(CCCC)CCCCCC)OC(=O)OCCN(CC)CCN(CC)CC (stereo not drawn) [Example 50, 2-Butyloctyl 12-dodecyl-3,6-diethyl-10-oxo-9,11-dioxa-3,6-diazahenicosan-21-oate] | 65.6 | 79 | 13 | 11 | 65.4 | 84 |  |
| CCCCC/C=C\C/C=C\CCCCCCCCC(CCCCCCCC/C=C\C/C=C\CCCCC)OC(=O)OCCN(CCN(CC)CC)Cc1ccccc1 [Example 51, 2-(Benzyl(2-(diethylamino)ethyl)amino)ethyl((6Z,9Z,28Z,31Z)-heptatriaconta-6,9,28,31-tetraen-19-yl)carbonate] | 69 | 76 | 37 | 19 | 71 | 84 |  |
| CCCCC/C=C\C/C=C\CCCCCCCCC(CCCCCCCC/C=C\C/C=C\CCCCC)OC(=O)OCCN(CCCCCCCC)CCN(C)C [Example 52, 2-((2-(Dimethylamino)ethyl)(octyl)amino)ethyl((6Z,9Z,28Z,31Z)-heptatriaconta-6,9,28,31-tetraen-19-yl)carbonate] | 79.9 | 80 | 27 | 19 | 73.1 | 83 |  |
| CCCCCCCCCCCCC(CCCCCCCCC(=O)OCC(CCCC)CCCCCC)OC(=O)OCCN(CCN(CC)CC)C(C)C (stereo not drawn) [Example 61, 2-Butyloctyl 12-dodecyl-3-ethyl-6-isopropyl-10-oxo-9,11-dioxa-3,6-diazahenicosan-21-oate] | 60.9 | 75 | 7 | 8 | 67.7 | 78 |  |
| CCCCC/C=C\C/C=C\CCCCCCCCC(CCCCCCCC/C=C\C/C=C\CCCCC)OC(=O)OCCN(CCC)CCN(C)C(C)C [Example 64] | 61.5 | 75 | 5 | 10 | 65.7 | 86 |  |
| CCCCCCCCCCC(CCCCCCCCCCC(=O)OCC(CCCC)CCCCCC)OC(=O)OCCN(CC)CCN(CC)CC (stereo not drawn) [Example 66, 2-Butyloctyl 12-decyl-3,6-diethyl-10-oxo-9,11-dioxa-3,6-diazatricosan-23-oate] | 69.8 | 73 | 28 | 17 | 85.4 | 98 |  |
| CCCCCCCCCCC(CCCCCCCCC(=O)OCC(CCCC)CCCCCC)OC(=O)OCCN(CC)CCN(CC)CC (stereo not drawn) [Example 68, 2-Butyloctyl 12-decyl-3,6-diethyl-10-oxo-9,11-dioxa-3,6-diazahenicosan-21-oate] | 70.7 | 97 | 37 | 9 | 84.5 | 91 |  |
| CCCCCCCCCCC(CCCCCCCCC(=O)OCC(CCCC)CCCCCC)OC(=O)OCCN(CCN(CC)CC)C(C)C (stereo not drawn) [Example 69, 2-Butyloctyl 12-decyl-3-ethyl-6-isopropyl-10-oxo-9,11-dioxa-3,6-diazahenicosan-21-oate] | 67.6 | 98 | 28 | 6 | 86.8 | 97 |  |
| CCCCCCC(CCCC)COC(=O)CCCCCCCCC(CCCCCCCCC(=O)OCC(CCCC)CCCCCC)OC(=O)OCCN(CC)CCN(CC)CC (stereo not drawn) [Example 72, Bis(2-butyloctyl)10-(((2-((2-(diethylamino)ethyl)(ethyl)amino)ethoxy)carbonyl)oxy)nonadecanedioate] | 74.2 | 81 | 31 | 6 | 72.4 | 85 |  |
| CCCCCCCCCC(CCCCCCCCC(=O)OCC(CCCC)CCCCCC)OC(=O)OCCN(CC)CCN(CC)CC (stereo not drawn) [Example 75, 2-Butyloctyl 3,6-diethyl-12-nonyl-10-oxo-9,11-dioxa-3,6-diazahenicosan-21-oate] | 65.4 | 76 | 8 | 17 | 79.1 | 83 |  |
| CCCCCCCCCC(=O)OCCCCCCC(CCCCCCOC(=O)CC(CCCCCCC)CCCCCCC)OC(=O)OCCN(CC)CCN(CC)CC (stereo not drawn) [Example 78, 12-(6-(Decanoyloxy)hexyl)-3,6-diethyl-10-oxo-9,11-dioxa-3,6-diazooctadecan-18-yl 3-heptyldecanoate] | 71.7 | 75 |  | 10 | 74.2 | 78 | 16 |
| CCCCCCCCCC(=O)OCCN(CCOC(=O)OC(CCCCCC)CCCCCCCCC(=O)OCC(CCCC)CCCCCC)CCN(CC)CC (stereo not drawn) [Example 87, 2-Butyloctyl 6-(2-(decanoyloxy)ethyl)-3-ethyl-12-hexyl-10-oxo-9,11-dioxa-3,6-diazahenicosan-21-oate] | 69.2 | 79 | 34 | 3 | 69.3 | 87 |  |
| CCCCCCCC(=O)OCCN(CCOC(=O)OC(CCCCCC)CCCCCCCCC(=O)OCC(CCCC)CCCCCC)CCN(CC)CC (stereo not drawn) [Example 88, 2-Butyloctyl 3-ethyl-12-hexyl-6-(2-(octanoyloxy)ethyl)-10-oxo-9,11-dioxa-3,6-diazahenicosan-21-oate] | 74.6 | 81 | 23 | 2 | 78.7 | 83 |  |
| CCCCCCCC/C=C\CCCCCCCC(=O)OCCN(CCCN(CC)CC)CCOC(=O)OC(CCCCCC)CCCCCCCCC(=O)OCC(CCCC)CCCCCC (stereo not drawn) [Example 93, 2-Butyloctyl 3-ethyl-13-hexyl-7-(2-(oleoyloxy)ethyl)-11-oxo-10,12-dioxa-3,7-diazadocosan-22-oate] | 70.4 | 70 | 22 | 7 | 67.8 | 73 |  |
